Reference: patent publication US20130030017A1, “QUINOLINE DERIVATIVES AS ANTIBACTERIAL AGENTS” (priority 2005, published 2013)
≈ marks a conversion by molar mass, not a printed value.

How the values were obtained:
Format in all cases: cell-based
Conditions in all cases: 90% inhibitory concentration for bacterial growth, 37° C., 24 hours, resazurin fluorescence
[1] = tested on: Streptococcus pneumoniae (ATCC6305); assay: Microtitre plate assay, IC90 determination (SPN 6305)
Protocol: (§1) The bacteria used in this study were grown overnight in flasks containing 100 ml Mueller-Hinton Broth (Becton Dickinson—cat. no. 275730) in sterile de-ionized water, with shaking, at 37° C. Stocks (0.5 ml/tube) were stored at −70° C. until use. Bacteria titrations were performed in microtiter plates and colony forming units (CFUs) were determined. In general, an inoculum level of approximately 100 CFUs was used for susceptibility testing.
(§2) Flat-bottom, sterile 96-well plastic microtiter plates were filled with 180 μl of sterile deionized water, supplemented with 0.25% BSA. Subsequently, stock solutions (7.8× final test concentration) of compounds were added in 45 μl volumes in column 2 Serial five-fold dilutions (45 μl in 180 μl) were made directly in the microtiter plates from column 2 to reach column 11. Untreated control samples with (column 1) and without (column 12) inoculum were included in each microtiter plate. Depending on the bacteria type, approximately 10 to 60 CFU per well of bacteria inoculum (100 TCID50), in a volume of 100 μl in 2.8× Mueller-Hinton broth medium, was added to the rows A to H, except column 12. The same volume of broth medium without inoculum was added to column 12 in row A to H. The cultures were incubated at 37° C. for 24 hours under a normal atmosphere (incubator with open air valve and continuous ventilation). At the end of incubation, one day after inoculation, the bacterial growth was quantitated fluorometrically. Therefore resazurin (0.6 mg/ml) was added in a volume of 20 μl to all wells 3 hours after inoculation, and the plates were re-incubated overnight. A change in colour from blue to pink indicated the growth of bacteria. The fluorescence was read in a computer-controlled fluorometer (Cytofluor Biosearch) at an excitation wavelength of 530 nm and an emission wavelength of 590 nm. The % growth inhibition achieved by the compounds was calculated according to standard methods. The IC90 (expressed in μg/ml) was defined as the 90% inhibitory concentration for bacterial growth.

[2] = tested on: Staphylococcus aureus (ATCC29213); assay: Microtitre plate assay, IC90 determination (STA 29213)
Protocol: as §1, §2

[3] = tested on: Enterococcus faecalis (ATCC29212); assay: Microtitre plate assay, IC90 determination (EFA 29212)
Protocol: as §1, §2

[4] = tested on: Pseudomonas aeruginosa (ATCC27853); assay: Microtitre plate assay, IC90 determination (PAE 27853)
Protocol: as §1, §2

[5] = tested on: Streptococcus pyogens (ATCC8668); assay: Microtitre plate assay, IC90 determination (SPY 8668)
Protocol: as §1, §2

| Structure (SMILES) | IC90 SPN 6305 [1] [µg/mL] | IC90 STA 29213 [2] [µg/mL] | IC90 EFA 29212 [3] [µg/mL] | IC90 PAE 27853 [4] [µg/mL] | IC90 SPY 8668 [5] [µg/mL] |
| --- | --- | --- | --- | --- | --- |
| COc1nc2ccccc2cc1C(c1ccccc1)C(O)(CCc1ccccc1)CCN(C)C (racemic) [Compound 13] | 4.1 (≈ 9.02 µM) | 36.1 (≈ 79.4 µM) |  |  |  |
| COc1nc2cc(C)c(Br)cc2cc1C(c1ccccc1)C(O)(CCc1ccccc1)CCN(C)C (racemic) [Compound 16] | 2.2 (≈ 4.02 µM) | 19.4 (≈ 35.4 µM) | 10.9 (≈ 19.9 µM) | 2.2 (≈ 4.02 µM) | 2.2 (≈ 4.02 µM) |
| COc1nc2ccc(Br)cc2cc1C(c1ccccc1)C(O)(CCc1cccc(OC(F)(F)F)c1)CCN(C)C (racemic) [Compound 45] | 0.4 (≈ 0.648 µM) | 2.5 (≈ 4.05 µM) | 2.2 (≈ 3.56 µM) | 0.7 (≈ 1.13 µM) | 2.0 (≈ 3.24 µM) |
| COc1nc2ccc(Br)cc2cc1C(c1ccccc1)C(O)(CCc1ccc(C(F)(F)F)cc1)CCN(C)C (racemic) [Compound 46] | 0.5 (≈ 0.831 µM) | 1.9 (≈ 3.16 µM) | 1.9 (≈ 3.16 µM) | 1.9 (≈ 3.16 µM) | 1.9 (≈ 3.16 µM) |
| COc1nc2ccc(Br)cc2cc1C(c1ccccc1)C(O)(CCc1cccc(F)c1)CCN(C)C (racemic) [Compound 47] | 8.7 (≈ 15.8 µM) | 43.8 (≈ 79.4 µM) |  |  |  |
| COc1nc2ccc(Br)cc2cc1C(c1ccccc1)C(O)(CCc1cccc(F)c1)CCN(C)C (racemic) [Compound 48] | 2.2 (≈ 3.99 µM) | 1.7 (≈ 3.08 µM) | 43.8 (≈ 79.4 µM) | 43.8 (≈ 79.4 µM) | 43.8 (≈ 79.4 µM) |
| COc1nc2ccc(Br)cc2cc1C(c1ccccc1)C(O)(CCc1ccc(F)cc1)CCN(C)C (racemic) [Compound 49] | 2.2 (≈ 3.99 µM) | 11.0 (≈ 19.9 µM) | 43.8 (≈ 79.4 µM) | 43.8 (≈ 79.4 µM) | 43.8 (≈ 79.4 µM) |
| COc1nc2ccc(Br)cc2cc1C(c1ccccc1)C(O)(CCc1ccc(C)cc1)CCN(C)C (racemic) [Compound 52] | 1.4 (≈ 2.56 µM) | 6.9 (≈ 12.6 µM) | 1.7 (≈ 3.1 µM) | 1.7 (≈ 3.1 µM) | 1.7 (≈ 3.1 µM) |
| COc1nc2ccc(Br)cc2cc1C(c1ccccc1)C(O)(CCc1ccccc1Cl)CCN(C)C (racemic) [Compound 54] | 2.3 (≈ 4.05 µM) | 10.1 (≈ 17.8 µM) | 4.5 (≈ 7.92 µM) | 2.0 (≈ 3.52 µM) | 2.0 (≈ 3.52 µM) |
| COc1nc2ccc(Br)cc2cc1C(c1ccccc1)C(O)(CCc1ccc(Cl)cc1)CCN(C)C (racemic) [Compound 55] | 0.3 (≈ 0.528 µM) | 1.8 (≈ 3.17 µM) |  |  |  |
| COc1nc2ccc(Br)cc2cc1C(c1ccccc1)C(O)(CCc1ccc(Cl)cc1)CCN(C)C (racemic) [Compound 56] | 5.7 (≈ 10 µM) | 9.0 (≈ 15.8 µM) |  |  |  |
| COc1nc2ccc(Br)cc2cc1C(c1ccccc1)C(O)(CCc1ccc(Cl)c(Cl)c1)CCN(C)C (racemic) [Compound 57] | 0.5 (≈ 0.83 µM) | 6.0 (≈ 9.96 µM) |  |  |  |
| COc1nc2ccc(-c3ccccc3)cc2cc1C(c1ccccc1)C(O)(CCc1ccccc1)CCN(C)C (racemic) [Compound 59] | 10.6 (≈ 20 µM) | 42.2 (≈ 79.5 µM) |  |  |  |
| COc1nc2ccc(-c3ccccc3)cc2cc1C(c1ccccc1)C(O)(CCc1ccccc1)CCN(C)C (racemic) [Compound 60] | 10.6 (≈ 20 µM) | 53.1 (≈ 100 µM) |  |  |  |
| COc1nc2ccc(-c3cccnc3)cc2cc1C(c1ccccc1)C(O)(CCc1ccccc1)CCN(C)C (racemic) [Compound 61] | 7.5 (≈ 14.1 µM) |  |  |  |  |
| COc1nc2ccc(-c3ccco3)cc2cc1C(c1ccccc1)C(O)(CCc1ccccc1)CCN(C)C (racemic) [Compound 62] | 10.4 (≈ 20 µM) | 8.3 (≈ 15.9 µM) |  |  |  |
| COc1nc2ccc(-c3cccs3)cc2cc1C(c1ccccc1)C(O)(CCc1ccccc1)CCN(C)C (racemic) [Compound 63] | 2.1 (≈ 3.91 µM) | 10.7 (≈ 19.9 µM) | 19.0 (≈ 35.4 µM) | 8.5 (≈ 15.8 µM) | 21.4 (≈ 39.9 µM) |
